Results from patent publication US20230002383A1, “NOVEL FUNCTIONALIZED LACTAMS AS MODULATORS OF THE 5-HYDROXYTRYPTAMINE RECEPTOR 7 AND THEIR METHOD OF USE” (Temple University-Of The Commonwealth System of Higher …, priority 2019, published 2023).
pKi: −log10 of the molar value.

Key:
[1] = target: T1, 5-HT7 receptors (Homo sapiens, UniProt P34969); assay: HitHunter cAMP enzyme fragment complementation assay, antagonist activity in presence of 5-HT (Kb); type: cell-based; set-up: expressed in transfected cells; kept under G418 selection; details: antagonist mode vs EC70 5-HT
T1 sequence (P34969 whole entry, the tested form may be a part): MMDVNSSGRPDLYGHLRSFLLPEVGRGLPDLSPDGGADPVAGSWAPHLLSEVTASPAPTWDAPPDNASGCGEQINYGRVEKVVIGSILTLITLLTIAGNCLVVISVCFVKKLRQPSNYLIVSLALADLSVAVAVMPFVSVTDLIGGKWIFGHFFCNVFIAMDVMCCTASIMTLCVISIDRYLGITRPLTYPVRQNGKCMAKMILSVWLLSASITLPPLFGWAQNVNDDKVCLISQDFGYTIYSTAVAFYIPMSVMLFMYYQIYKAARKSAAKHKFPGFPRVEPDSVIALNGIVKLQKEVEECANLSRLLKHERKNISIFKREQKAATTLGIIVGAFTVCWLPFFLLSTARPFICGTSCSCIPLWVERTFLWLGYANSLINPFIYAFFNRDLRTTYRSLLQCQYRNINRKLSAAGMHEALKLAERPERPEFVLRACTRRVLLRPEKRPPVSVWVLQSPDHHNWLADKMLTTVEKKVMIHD
Experimental: Functional efficacy of the compounds of the disclosure on 5-HT7 serotonin receptors were measured in a cell based cAMP enzyme fragment complementation assay using the HitHunter cAMP assay (DiscoveRx). Cells stably expressing human 5HT7 receptors were plated in 96-well plates at 4000 cells/well, 16-20 hours prior to assay in growth media (Ultraculture medium, 2 mM GlutaMax and G418 1 mg/mL. Serial dilutions of the agonist, 5-hydroxytryptamine (5-HT), were prepared in a final concentration range of 10 μM to 10 nM. Compounds of the disclosure were prepared in 3-fold serial dilutions to obtain a final concentration range of 10 μM to 0.1 nM. Compounds of the disclosure are tested for agonist activity in the absence of 5-HT and antagonist activity in the presence of 5-HT. For the cAMP assay, the protocol was followed according to the instructions provided by the supplier. Briefly, cells were incubated with a compound of the disclosure for 30 minutes at 37° C. prior to addition of EC70 concentration of 5-HT. After an additional 30 minutes, cAMP antibody/cell lysis solution was added (20 μL/well) and incubated for 60 minutes at room temperature, cAMP XS+EA reagent is added (20 μL/well) and incubated for 2 hours at room temperature. Luminescence was read on the Envision Multilabel plate reader.

[2] = target: T1, 5-HT7 receptors; assay: Radiolabeled binding ([3H]LSD competition), membranes of cells expressing recombinant 5-HT7 receptors; set-up: expressed in transfected cells; details: for inhibition at 0.1 µM: read-out: 5-HT7 % Inhib. @ 0.1 uM (Ki column); for pKi: [3H]LSD radioligand binding
Experimental: ^1Radiolabeled Binding (IC50 and K1)
A solution of the compound of the disclosure to be tested was prepared as a 1-mg/ml stock in Assay Buffer or DMSO according to its solubility. A similar stock of the reference compound chlorpromazine was also prepared as a positive control. Eleven dilutions (5×assay concentration) of the compound of the disclosure and chlorpromazine were prepared in the Assay Buffer by serial dilution to yield final corresponding assay concentrations ranging from 10 pM to 10 μM.
A stock concentration of 5 nM [^3H]LSD (lysergic acid diethyl amide) was prepared in 50 mM Tris-HCl, 10 mM MgCl2, 1 mM EDTA, pH 7.4 (Assay Buffer). Aliquots (50 μl) of radioligand were dispensed into the wells of a 96-well plate containing 100 μl of Assay Buffer. Duplicate 50-μl aliquots of the compound of the disclosure test and chlorpromazine positive control reference compound serial dilutions were added.
Membrane fractions of cells expressing recombinant 5-HT7 receptors (50 μL) were dispensed into each well. The membranes were prepared from stably transfected cell lines expressing 5-HT7 receptors cultured on 10-cm plates by harvesting PBS-rinsed monolayers, resuspending and lysing in chilled, hypotonic 50 mM Tris-HCl, pH 7.4, centrifuging at 20,000×g, decanting the supernatant and storing at −80° C.; the membrane preparations were resuspended in 3 ml of chilled Assay Buffer and homogenized by several passages through a 26 gauge needle before using in the assay.
The 250-μl reactions were incubated at room temperature for 1.5 hours, then harvested by rapid filtration onto 0.3% polyethyleneimine-treated, 96-well filter mats using a 96-well Filtermate harvester. Four rapid 500-μl washes were performed with chilled Assay Buffer to reduce non-specific binding. The filter mats were dried, then scintillant is added to the filters and the radioactivity retained on the filters was counted in a Microbeta scintillation counter.
Raw data (dpm) representing total radioligand binding (i.e., specific+non-specific binding) was plotted as a function of the logarithm of the molar concentration of the competitor (i.e., test or reference compound). Non-linear regression of the normalized (i.e., percent radioligand binding compared to that observed in the absence of test or reference compound) raw data was performed in Prism 4.0 (GraphPad Software) using the built-in three parameter logistic model describing ligand competition binding to radioligand-labeled sites:
y=bottom+[(top−bottom)/(1+10×−log IC50)]
where bottom equals the residual radioligand binding measured in the presence of 10 μM reference compound (i.e., non-specific binding) and top equals the total radioligand binding observed in the absence of competitor. The log IC50 (i.e., the log of the ligand concentration that reduces radioligand binding by 50%) was thus estimated from the data and used to obtain the Ki by applying the Cheng-Prusoff approximation:
where [ligand] equals the assay radioligand concentration and KD equals the affinity constant of the radioligand for the target receptor. Functional Data (Kb)

Row | Structure (SMILES) | Kb [1] | pKi [2] | other results
1 | O=C(CC(F)(F)F)N1CCC2(CC1)C[C@H](CCN1CCN(c3ccc(F)cc3)CC1)NC2=O [Compound A95] | 10 to 100 nM |  | 
2 | CCC(=O)N1CCC2(CC1)C[C@H](CCN1CCN(c3ccc(F)cc3)CC1)N(C)C2=O [Compound A97] | < 10 nM |  | 
3 | CN1C(=O)C2(CCN(C(=O)C3CC3)CC2)C[C@@H]1CCN1CCN(c2ccc(F)cc2)CC1 [Compound A99] | < 10 nM |  | 
4 | CC(=O)N[C@@H](C)C(=O)N1CCC2(CC1)C[C@H](CCN1CCN(c3ccc(F)cc3)C[C@H]1C)NC2=O [Compound A123] | < 10 nM |  | inhibition at 0.1 µM [2]: 64%
5 | O=C(Cc1nnn[nH]1)N1CCC2(CC1)C[C@H](CCN1CCN(c3ccc(F)cc3)CC1)NC2=O [Compound A82] | ≥ 500 nM |  | 
6 | CC(=O)N[C@H](C(=O)N1CCC2(CC1)C[C@H](CCN1CCN(c3ccc(F)cc3)CC1)NC2=O)C(C)C [Compound A184] | < 10 nM |  | 
7 | CC(C)(C)C(=O)NCC(=O)N1CCC2(CC1)C[C@H](CCN1CCN(c3ccc(F)cc3)CC1)NC2=O [Compound A25] |  | 6.30 to 6.70 | 
8 | CC(C)(N)C(=O)N1CCC2(CC1)C[C@H](CCN1CCN(c3cccc(Cl)c3)CC1)NC2=O [Compound A14] |  | 6.30 to 6.70 | 
9 | CC(=O)NC(C)(C)C(=O)N1CCC2(CC1)C[C@H](CCN1CCN(c3ccc(F)cc3)CC1)NC2=O [Compound A17] |  | 6.30 to 6.70 | 
10 | CC(C)C(=O)N1CCC2(CC1)C[C@H](CCN1CCN(c3ccc(F)cc3)CC1)N(C)C2=O [Compound A98] | 10 to 100 nM |  | 
11 | CC(=O)N1CCC2(CC1)C[C@H](CCN1CCN(c3cccc(Cl)c3)CC1)N(C)C2=O [Compound A89] | 10 to 100 nM |  | 
12 | CC(C)(C)C(=O)NC(C)(C)C(=O)N1CCC2(CC1)C[C@H](CCN1CCN(c3cccc(Cl)c3)CC1)NC2=O [Compound A22] |  | 6.70 to 7.30 | 
13 | O=C(CN1CCOCC1)N1CCC2(CC1)C[C@H](CCN1CCN(c3cccc(Cl)c3)CC1)NC2=O [Compound A34] |  | 6.30 to 6.70 | 
14 | CC(=O)N[C@@H](C)C(=O)N1CCC2(CC1)C[C@H](CCN1CCN(c3cccc(Cl)c3)CC1)NC2=O [Compound A40] | < 10 nM |  | 
15 | O=C(CN1CCOC1=O)N1CCC2(CC1)C[C@H](CCN1CCN(c3ccc(F)cc3)CC1)NC2=O [Compound A83] | 100 to 500 nM |  | 
16 | CC(C)(N)C(=O)N1CCC2(CC1)C[C@H](CCN1CCN(c3ccc(F)cc3)CC1)NC2=O [Compound A13] |  | 6.30 to 6.70 | 
17 | CC(C)(C)C(=O)NC(C)(C)C(=O)N1CCC2(CC1)C[C@H](CCN1CCN(c3ccc(F)cc3)CC1)NC2=O [Compound A21] |  | 6.70 to 7.30 | 
18 | CN1C(=O)C2(CCN(C(=O)C(C)(C)C)CC2)C[C@@H]1CCN1CCN(c2ccc(F)cc2)CC1 [Compound A90] | < 10 nM |  | 
19 | O=C(c1cccnn1)N1CCC2(CC1)C[C@H](CCN1CCN(c3ccc(F)cc3)CC1)NC2=O [Compound A84] | 100 to 500 nM |  | 
20 | CC(=O)N1CCC2(CC1)C[C@H](CCN1CCN(c3ccc(F)cc3)C[C@@H]1C)NC2=O [Compound A107] | < 10 nM |  | inhibition at 0.1 µM [2]: 62%
21 | CC(=O)N1CCC2(CC1)C[C@H](CCN1CCN(c3ccc(F)cc3)[C@@H](C)C1)NC2=O [Compound A109] | 10 to 100 nM |  | inhibition at 0.1 µM [2]: 40%
22 | O=C(CN1CCOCC1)N1CCC2(CC1)C[C@H](CCN1CCN(c3ccc(F)cc3)CC1)NC2=O [Compound A33] |  | ≤ 6.30 | 
23 | CC[C@H](NC(C)=O)C(=O)N1CCC2(CC1)C[C@H](CCN1CCN(c3ccc(F)cc3)CC1)NC2=O [Compound A183] | < 10 nM |  | 

Row | Structure (SMILES) | Kb [1] | pKi [2] | other results
24 | NCC(=O)N1CCC2(CC1)C[C@H](CCN1CCN(c3ccc(F)cc3)CC1)NC2=O [Compound A2] | 10 to 100 nM |  | 
25 | CS(=O)(=O)NCC(=O)N1CCC2(CC1)C[C@H](CCN1CCN(c3cccc(Cl)c3)CC1)NC2=O [Compound A9] | 10 to 100 nM | 6.70 to 7.30 | 
26 | CC(=O)NC(C)(C)C(=O)N1CCC2(CC1)C[C@H](CCN1CCN(c3cccc(Cl)c3)CC1)NC2=O [Compound A18] |  | 6.30 to 6.70 | 
27 | CC(=O)N1CCC2(CC1)C[C@H](CCN1CCN(c3ccc(F)cc3)[C@H](C)C1)NC2=O [Compound A110] |  |  | inhibition at 1 µM ([2]; read-out: 5-HT7 % Inhib. @ 1 uM (Ki column)): 45%
28 | CC(C)(C)C(=O)NCC(=O)N1CCC2(CC1)C[C@H](CCN1CCN(c3cccc(Cl)c3)CC1)NC2=O [Compound A26] |  | 6.30 to 6.70 | 
29 | CCC1(CC)C[C@H](CCN2CCN(c3cccc(Cl)c3)CC2)N(C)C1=O [Compound A86] | < 10 nM | > 7.30 | 
30 | CC(=O)N1CCC2(CC1)C[C@H](CCN1CCN(c3ccc(F)cc3)C[C@H]1C)NC2=O [Compound A108] | < 10 nM |  | inhibition at 0.1 µM [2]: 63%
31 | CCC1(CC)C[C@H](CCN2CCN(c3ccccc3)CC2)N(C)C1=O [Compound A85] | 10 to 100 nM | 6.70 to 7.30 | 
32 | COC(=O)N1CCC2(CC1)C[C@H](CCN1CCN(c3ccc(F)cc3)CC1)N(C)C2=O [Compound A124] | 10 to 100 nM |  | 
33 | CCC1(CC)C[C@H](CCN2CCN(c3ccc(F)cc3)CC2)N(C)C1=O [Compound A87] | 10 to 100 nM | > 7.30 | 
34 | CC(=O)N1CCC2(CC1)C[C@H](CCN1CCN(c3ccc(F)cc3)CC1)N(C)C2=O [Compound A88] | 10 to 100 nM |  | 
35 | CN1C(=O)C2(CCN(C(=O)C(C)(C)C)CC2)C[C@@H]1CCN1CCN(c2cccc(Cl)c2)CC1 [Compound A91] | 10 to 100 nM |  | 
36 | CN1C(=O)C2(CCN(C(=O)C(C)(F)F)CC2)C[C@@H]1CCN1CCN(c2ccc(F)cc2)CC1 [Compound A103] | < 10 nM |  | 
37 | CC(F)(F)C(=O)N1CCC2(CC1)C[C@H](CCN1CCN(c3ccc(F)cc3)CC1)NC2=O [Compound A93] | < 10 nM |  | 
38 | O=C(c1cccnc1)N1CCC2(CC1)C[C@H](CCN1CCN(c3ccc(F)cc3)CC1)NC2=O [Compound A81] | 100 to 500 nM |  | 
39 | CN(C)CC(=O)N1CCC2(CC1)C[C@H](CCN1CCN(c3cccc(Cl)c3)CC1)NC2=O [Compound A30] |  | 6.30 to 6.70 | 
40 | NCC(=O)N1CCC2(CC1)C[C@H](CCN1CCN(c3cccc(Cl)c3)CC1)NC2=O [Compound A1] | < 10 nM |  | 
41 | CC(=O)N[C@@H](C)C(=O)N1CCC2(CC1)C[C@H](CCN1CCN(c3ccc(F)cc3)CC1)NC2=O [Compound A39] | < 10 nM |  | 
42 | CC(=O)NCC(=O)N1CCC2(CC1)C[C@H](CCN1CCN(c3ccc(F)cc3)CC1)NC2=O [Compound A6] | < 10 nM |  | 
43 | CN(C)CC(=O)N1CCC2(CC1)C[C@H](CCN1CCN(c3ccc(F)cc3)CC1)NC2=O [Compound A29] |  | ≤ 6.30 | 
44 | CS(=O)(=O)NCC(=O)N1CCC2(CC1)C[C@H](CCN1CCN(c3ccc(F)cc3)CC1)NC2=O [Compound A10] | 10 to 100 nM | 6.70 to 7.30 | 
45 | CC(=O)NCC(=O)N1CCC2(CC1)C[C@H](CCN1CCN(c3cccc(Cl)c3)CC1)NC2=O [Compound A5] | < 10 nM |  | 
